Measurements as given in EP0804206B1, “ANTIFUNGAL AGENT CONTAINING CROTAMITON, AND SALICYCLIC ALDEHYDE” (Pierre Fabre Dermo-Cosmetique, priority 1995, dated 1996).

System: Trichophyton mentagrophytes n° 8611
Assay: Minimal fungistatic concentration (CMF) of the products alone and combined, with FIC index
Assay type: cell-based
From the text: La synergie peut être mise-en évidence par le calcul des index FIC (Fractional Inhibitory Concentration) ou FBC (Fractional Bactericidal Concentration) des produits. Pour cela, on mesure la valeur de la CMF (ou concentration minimale fongistatique), ou de la CMϕ (ou concentration minimale fongicide), des principes actifs à tester vis-à-vis d'un type de germe.
Le FIC d'un produit A est défini comme : FICA (CMF du produit A en association)/(CMF du produit A seul) [formula]
L'association de deux antifongiques A et B est synergique si la somme FIC des rapports (FICA + FICB) est inférieure ou égale à 0,75.
On considère qu'il y a simple additivité pour des valeurs de FIC comprises entre 0,75 et 1,1, et indifférence dans l'intervalle compris entre 1,1 et 2; au-delà, l'association est notée antagoniste.
Après détermination des niveaux de concentrations minimales inhibitrices pour chaque souche, les associations entre les différents principes actifs sont testées. Le FIC Index =(CMI crotamiton associé)/(CMI crotamiton seul)+(CMI salicylaldéhyde associé)/(CMI salicylaldéhyde seul) [formula] est calculé.
Les activités antifongiques du crotamiton et du salicylaldéhyde ont été recherchées sur Trichophyton mentagrophytes.
Les concentrations minimales fongistatiques des produits seuls et associés sont présentées ici.
• * Souche • Trichophyton mentagrophytes n° 8611 • * Milieux de culture • Bouillon Sabouraud • Gélose Sabouraud • Eau distillée stérile • * Produits • Crotamiton (Borhinger, lot-209313) • Salicylaldéhyde Prolabo Rectapur encapsulé dans β cyclodextrines = formule aldéhydique
Les solutions-mère aqueuses des produits suivants ont été testées pour leur meilleure solubilité et sans artéfact d'activité antifongique : • Crotamiton : 0,2% dans 10% PEG 200 • Solution aqueuse à 10% aldhéhyde salicylique.
Les essais sont réalisés plusieurs fois car ces produits sont très volatils, rendant la lecture des tests très difficile. […]

CC=CC(=O)N(CC)c1ccccc1C [Crotamiton, N-éthyl-O crotonotoluidide]
fois moins de produit pour obtenir le même effet antifongique que les produits utilisés seuls (combined versus alone, formule aldéhydique at 10% aldehyde): 30 fois
CMF = Concentrations Minimales Fongistatiques, Seul (product alone, T. mentagrophytes calibrated at 10^6 spores per ml): 0,1%
CMF = Concentrations Minimales Fongistatiques, Associés (product in the binary combination Crotamiton - Formule aldéhydique, T. mentagrophytes 10^6 spores per ml): 0,003%
